From the supplement of paper PMC10307832

How the values were obtained:
Test in all cases: relative viability (nuclei count vs DMSO), 5 days (fraction); higher = more cells survive
[1] = test system: A549
In short: (§1)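 Five library-drug doses in √10 steps were combined with a fixed anchor-drug dose, or a single drug was given alone, by pin tool to lung cancer cell lines in 1536-well plates the day after seeding. Nuclei were stained and counted after 5 days. Relative viability is the nuclei count in treated wells over that in vehicle wells, taken as the median of duplicate plates.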

[2] = test system: Calu-6
In short: as §1

[3] = test system: EBC-1
In short: as §1

[4] = test system: IA-LM
In short: as §1

[5] = test system: NCI-H1299
In short: as §1

[6] = test system: NCI-H1563
In short: as §1

[7] = test system: NCI-H1623
In short: as §1

[8] = test system: NCI-H1703
In short: as §1

[9] = test system: NCI-H2342
In short: as §1

[10] = test system: SW 900
In short: as §1

[11] = test system: NCI-H1648
In short: as §1

[12] = test system: NCI-H522
In short: as §1

For `Cc1cnc(-c2cnc(NCCNc3ccc(C#N)cn3)nc2-c2ccc(Cl)cc2Cl)[nH]1` + COc1cc2c(Oc3ccc(NC(=O)C4(C(=O)Nc5ccc(F)cc5)CC4)cc3F)ccnc2cc1OCCCN1CCOCC1 [Foretinib] (partner 0.25 µM), the relative viability ([1]; first compound 0.08 µM) was 0.984, the relative viability ([1]; first compound 0.253 µM) was 0.963 and the relative viability ([1]; first compound 0.8 µM) was 1.02. It also gave a relative viability ([1]; first compound 2.53 µM) of 0.451, a relative viability ([2]; first compound 0.08 µM) of 0.906 and a relative viability ([2]; first compound 0.253 µM) of 0.826. The relative viability ([2]; first compound 0.8 µM) was 0.874, the relative viability ([2]; first compound 2.53 µM) was 0.784 and the relative viability ([3]; first compound 0.08 µM) was 0.0986. It also gave a relative viability ([3]; first compound 0.253 µM) of 0.105, a relative viability ([3]; first compound 0.8 µM) of 0.102 and a relative viability ([3]; first compound 2.53 µM) of 0.112. It also gave a relative viability ([4]; first compound 0.08 µM) of 0.95, a relative viability ([4]; first compound 0.253 µM) of 1.09 and a relative viability ([4]; first compound 0.8 µM) of 1.44. It also gave a relative viability ([4]; first compound 2.53 µM) of 0.988, a relative viability ([5]; first compound 0.08 µM) of 1.11 and a relative viability ([5]; first compound 0.253 µM) of 1.05. It also gave a relative viability ([5]; first compound 0.8 µM) of 1.09, a relative viability ([5]; first compound 2.53 µM) of 1.06 and a relative viability ([6]; first compound 0.08 µM) of 0.925. The relative viability ([6]; first compound 0.253 µM) was 0.885, the relative viability ([6]; first compound 0.8 µM) was 0.951 and the relative viability ([6]; first compound 2.53 µM) was 1.01. It also gave a relative viability ([7]; first compound 0.08 µM) of 0.785, a relative viability ([7]; first compound 0.253 µM) of 0.828 and a relative viability ([7]; first compound 0.8 µM) of 0.821. For the same compound, the relative viability ([7]; first compound 2.53 µM) was 0.849, the relative viability ([8]; first compound 0.08 µM) was 0.333 and the relative viability ([8]; first compound 0.253 µM) was 0.383. The relative viability ([8]; first compound 0.8 µM) was 0.362, the relative viability ([8]; first compound 2.53 µM) was 0.433 and the relative viability ([9]; first compound 0.08 µM) was 0.974. The relative viability ([9]; first compound 0.253 µM) was 0.903, the relative viability ([9]; first compound 0.8 µM) was 1.03 and the relative viability ([9]; first compound 2.53 µM) was 1.07. For the same compound, the relative viability ([10]; first compound 0.08 µM) was 0.781, the relative viability ([10]; first compound 0.253 µM) was 0.78 and the relative viability ([10]; first compound 0.8 µM) was 0.789. It also gave a relative viability ([10]; first compound 2.53 µM) of 0.717.

For `Cc1cnc(-c2cnc(NCCNc3ccc(C#N)cn3)nc2-c2ccc(Cl)cc2Cl)[nH]1` + COc1cccc2cc(-c3nc([C@H]4CC[C@H](C(=O)O)CC4)n4ncnc(N)c34)[nH]c12 [OSI-027] (partner 0.5 µM), the relative viability ([6]; first compound 0.08 µM) was 0.798, the relative viability ([6]; first compound 0.253 µM) was 0.733 and the relative viability ([6]; first compound 0.8 µM) was 0.758. The relative viability ([6]; first compound 2.53 µM) was 0.78, the relative viability ([7]; first compound 0.08 µM) was 0.478 and the relative viability ([7]; first compound 0.253 µM) was 0.417. It also gave a relative viability ([7]; first compound 0.8 µM) of 0.413, a relative viability ([7]; first compound 2.53 µM) of 0.48 and a relative viability ([11]; first compound 0.08 µM) of 0.24. It also gave a relative viability ([11]; first compound 0.253 µM) of 0.259, a relative viability ([11]; first compound 0.8 µM) of 0.242 and a relative viability ([11]; first compound 2.53 µM) of 0.289. It also gave a relative viability ([9]; first compound 0.08 µM) of 0.653, a relative viability ([9]; first compound 0.253 µM) of 0.546 and a relative viability ([9]; first compound 0.8 µM) of 0.556. It also gave a relative viability ([9]; first compound 2.53 µM) of 0.53, a relative viability ([12]; first compound 0.08 µM) of 0.653 and a relative viability ([12]; first compound 0.253 µM) of 0.705. The relative viability ([12]; first compound 0.8 µM) was 0.647, the relative viability ([12]; first compound 2.53 µM) was 0.885 and the relative viability ([10]; first compound 0.08 µM) was 0.695. For the same compound, the relative viability ([10]; first compound 0.253 µM) was 0.56, the relative viability ([10]; first compound 0.8 µM) was 0.502 and the relative viability ([10]; first compound 2.53 µM) was 0.546.

With `Cc1cnc(-c2cnc(NCCNc3ccc(C#N)cn3)nc2-c2ccc(Cl)cc2Cl)[nH]1` + Cc1cc(Nc2cc(N3CCN(C)CC3)nc(Sc3ccc(NC(=O)C4CC4)cc3)n2)n[nH]1 [Tozasertib] (partner 0.1 µM) the relative viability ([7]; first compound 0.08 µM) was 0.477, the relative viability ([7]; first compound 0.253 µM) was 0.426 and the relative viability ([7]; first compound 0.8 µM) was 0.414. It also gave a relative viability ([7]; first compound 2.53 µM) of 0.417, a relative viability ([11]; first compound 0.08 µM) of 0.487 and a relative viability ([11]; first compound 0.253 µM) of 0.502. The relative viability ([11]; first compound 0.8 µM) was 0.465, the relative viability ([11]; first compound 2.53 µM) was 0.52 and the relative viability ([9]; first compound 0.08 µM) was 0.519. The relative viability ([9]; first compound 0.253 µM) was 0.513, the relative viability ([9]; first compound 0.8 µM) was 0.507 and the relative viability ([9]; first compound 2.53 µM) was 0.505. It also gave a relative viability ([12]; first compound 0.08 µM) of 0.629, a relative viability ([12]; first compound 0.8 µM) of 0.506 and a relative viability ([12]; first compound 2.53 µM) of 0.591. The relative viability ([10]; first compound 0.08 µM) was 0.667, the relative viability ([10]; first compound 0.253 µM) was 0.511 and the relative viability ([10]; first compound 0.8 µM) was 0.439. The relative viability ([10]; first compound 2.53 µM) was 0.415.

Compound `Cc1cnc(-c2cnc(NCCNc3ccc(C#N)cn3)nc2-c2ccc(Cl)cc2Cl)[nH]1` + N=C(N)NC(=N)NCCc1ccccc1 [Phenformin] (partner 250 µM) has a relative viability ([1]; first compound 0.08 µM) of 0.168, a relative viability ([1]; first compound 0.253 µM) of 0.154 and a relative viability ([1]; first compound 0.8 µM) of 0.151. It also gave a relative viability ([1]; first compound 2.53 µM) of 0.154, a relative viability ([6]; first compound 0.08 µM) of 0.649 and a relative viability ([6]; first compound 0.253 µM) of 0.647. For the same compound, the relative viability ([6]; first compound 0.8 µM) was 0.636, the relative viability ([6]; first compound 2.53 µM) was 0.635 and the relative viability ([7]; first compound 0.08 µM) was 0.527. The relative viability ([7]; first compound 0.253 µM) was 0.503, the relative viability ([7]; first compound 0.8 µM) was 0.581 and the relative viability ([7]; first compound 2.53 µM) was 0.589. For the same compound, the relative viability ([9]; first compound 0.08 µM) was 0.622, the relative viability ([9]; first compound 0.8 µM) was 0.635 and the relative viability ([9]; first compound 2.53 µM) was 0.577. For the same compound, the relative viability ([12]; first compound 0.08 µM) was 0.639, the relative viability ([12]; first compound 0.253 µM) was 0.707 and the relative viability ([12]; first compound 0.8 µM) was 0.65. For the same compound, the relative viability ([12]; first compound 2.53 µM) was 0.666, the relative viability ([10]; first compound 0.08 µM) was 0.771 and the relative viability ([10]; first compound 0.253 µM) was 0.588. The relative viability ([10]; first compound 0.8 µM) was 0.644 and the relative viability ([10]; first compound 2.53 µM) was 0.391.
